Columns and labels:
Assay type in all cases: cell-based
[1] = molecular target: T1, EGFR exon 20 ASV Ins V769_D770 (Ba/F3 cells) (Homo sapiens, UniProt P00533, INS769ASV); test: Inhibitor activity on EGFR-dependent cell growth (CellTiter-Glo, 72 h), Ba/F3 EGFR exon 20 ASV Ins; settings: read-out: BaF3 ASV IC50
T1 construct: expressed in transfected cells; host or cells: Ba/F3 (murine pro-B cells), retroviral transduction, puromycin selection, IL3-independent pool
From the text: (§1) Example A. Inhibitor Activity on EGFR-Dependent Cell Growth
(§2) Cell lines are generated by transducing Ba/F3 cells with retroviruses containing vectors with EGFR WT, EGFR L858R, EGFR exon 19del, EGFR L858R/C797S, EGFR exon 20 NPG Ins D770_N771, EGFR exon 20 ASV Ins V769_D770, EGFR exon 20 SVD Ins D770_N771, or EGFR exon 20 FQEA Ins A763_V764 genes and a puromycin selection marker. Transduced cells are selected with puromycin for 7 days and are then be transferred into culture media without Interleukin 3 (IL3). EGFR WT cells are maintained with supplemental EGF. Surviving cells are confirmed to express EGFR by Western blot and maintained as a pool. The IC50 date were included in Table 6 and Table 7.
(§3) 1.1 Cells are harvested from flask into cell culture medium and the cell number counted.
(§4) 1.2 Cells are diluted with culture medium to the desired density and 40 μL of cell suspension is added into each well of 384-well cell culture plate and the seeding density is 800 (FQEA, exon 19del), 600 (WT, NPG, L858R/C797S), or 400 (ASV, SVD, L858R) cells/well.
(§5) 2 Compound Preparation and Treatment
(§6) 2.1 Test compounds are dissolved to 10 mM in a DMSO stock solution. 45 μL of stock solution is transferred to a 384 polypropylene plate (pp-plate). Perform 3-fold, 10-point dilution via transferring 15 μL compound into 30 μL DMSO using a TECAN (EVO200) liquid handler.
(§7) 2.2 Spin plates at room temperature at 1,000 RPM for 1 minute.
(§8) 2.3 Transfer 120 nL of diluted compound from compound source plate into the cell plate.
(§9) 2.4 After compound treatment for 72 hours, perform CTG detection for compound treatment plates as described in “Detection” section.
(§10) 3.1 Plates are removed from incubators and equilibrated at room temperature for 15 minutes.
(§11) 3.2 Thaw the CellTiter Glo reagents and allow to equilibrate to room temperature before the experiment.
(§12) 3.3 Add 40 μL of CellTiter-Glo reagent into each well (at 1:1 to culture medium). Then place the plates at room temperature for 30 min followed by reading on EnVision.
(§13) 4.1 Inhibition activity is calculated following the formula below:
(§14) % Inhibition=100×(LumHC−LumSample)/(LumHC−LumLC) • where HC is obtained from cells treated with 0.1% DMSO only; and LC is obtained from culture medium only.
(§15) 4.2 2. Calculate the IC50 by fitting the Curve using Xlfit (v5.3.1.3), equation 201.
(§16) Y=Bottom+(Top−Bottom)/(1+10^((Log IC50−X)*HillSlope))

EGFR WT (Ba/F3 cells) = molecular target: T2, EGFR WT (Ba/F3 cells) (Homo sapiens, UniProt P00533); test: Inhibitor activity on EGFR-dependent cell growth (CellTiter-Glo, 72 h), Ba/F3 EGFR WT; settings: read-out: BaF3 WT IC50
T2 construct: expressed in transfected cells; host or cells: Ba/F3 (murine pro-B cells), retroviral transduction, puromycin selection, maintained with EGF
T2 sequence (P00533 25-1210): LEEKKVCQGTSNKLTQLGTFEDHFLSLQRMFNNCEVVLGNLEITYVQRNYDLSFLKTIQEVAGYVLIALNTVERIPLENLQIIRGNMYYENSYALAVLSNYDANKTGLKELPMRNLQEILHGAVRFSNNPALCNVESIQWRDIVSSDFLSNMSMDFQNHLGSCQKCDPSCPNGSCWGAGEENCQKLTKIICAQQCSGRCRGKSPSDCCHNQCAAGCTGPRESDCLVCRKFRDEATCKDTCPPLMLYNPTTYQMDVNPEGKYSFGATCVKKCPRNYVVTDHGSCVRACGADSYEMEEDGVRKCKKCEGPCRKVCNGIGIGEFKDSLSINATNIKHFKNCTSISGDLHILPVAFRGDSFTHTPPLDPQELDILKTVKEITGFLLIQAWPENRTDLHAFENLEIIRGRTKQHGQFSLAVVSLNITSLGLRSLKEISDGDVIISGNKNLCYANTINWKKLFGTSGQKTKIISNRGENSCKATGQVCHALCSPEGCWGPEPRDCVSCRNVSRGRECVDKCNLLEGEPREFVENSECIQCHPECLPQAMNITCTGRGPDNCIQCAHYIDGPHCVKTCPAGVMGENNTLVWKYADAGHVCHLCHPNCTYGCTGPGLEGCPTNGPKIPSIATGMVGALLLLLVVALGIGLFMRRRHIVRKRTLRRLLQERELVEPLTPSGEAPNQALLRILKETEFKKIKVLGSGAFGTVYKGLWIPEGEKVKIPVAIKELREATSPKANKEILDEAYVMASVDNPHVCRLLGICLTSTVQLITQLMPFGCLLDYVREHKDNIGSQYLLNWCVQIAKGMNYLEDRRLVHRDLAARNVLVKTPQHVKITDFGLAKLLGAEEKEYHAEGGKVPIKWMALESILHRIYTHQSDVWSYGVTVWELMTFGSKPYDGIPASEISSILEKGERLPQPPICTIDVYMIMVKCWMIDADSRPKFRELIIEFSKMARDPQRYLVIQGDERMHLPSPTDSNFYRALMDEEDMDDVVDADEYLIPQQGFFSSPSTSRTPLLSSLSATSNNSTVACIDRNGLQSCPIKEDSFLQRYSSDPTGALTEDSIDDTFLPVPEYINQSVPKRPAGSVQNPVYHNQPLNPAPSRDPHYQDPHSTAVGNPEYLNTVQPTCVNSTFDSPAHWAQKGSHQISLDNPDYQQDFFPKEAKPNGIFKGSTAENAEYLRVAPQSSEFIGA
From the text: as §1, §2, §3, §4, §5, §6, §7, §8, §9, §10, §11, §12, §13, §14, §15, §16

[2] = molecular target: T3, EGFR exon 20 SVD Ins D770_N771 (Ba/F3 cells) (Homo sapiens, UniProt P00533, INS770SVD); test: Inhibitor activity on EGFR-dependent cell growth (CellTiter-Glo, 72 h), Ba/F3 EGFR exon 20 SVD Ins; settings: read-out: BaF3 SVD IC50
T3 construct: expressed in transfected cells; host or cells: Ba/F3 (murine pro-B cells), retroviral transduction, puromycin selection, IL3-independent pool
T3 sequence (P00533 with tags, fused parts or gaps INS770SVD): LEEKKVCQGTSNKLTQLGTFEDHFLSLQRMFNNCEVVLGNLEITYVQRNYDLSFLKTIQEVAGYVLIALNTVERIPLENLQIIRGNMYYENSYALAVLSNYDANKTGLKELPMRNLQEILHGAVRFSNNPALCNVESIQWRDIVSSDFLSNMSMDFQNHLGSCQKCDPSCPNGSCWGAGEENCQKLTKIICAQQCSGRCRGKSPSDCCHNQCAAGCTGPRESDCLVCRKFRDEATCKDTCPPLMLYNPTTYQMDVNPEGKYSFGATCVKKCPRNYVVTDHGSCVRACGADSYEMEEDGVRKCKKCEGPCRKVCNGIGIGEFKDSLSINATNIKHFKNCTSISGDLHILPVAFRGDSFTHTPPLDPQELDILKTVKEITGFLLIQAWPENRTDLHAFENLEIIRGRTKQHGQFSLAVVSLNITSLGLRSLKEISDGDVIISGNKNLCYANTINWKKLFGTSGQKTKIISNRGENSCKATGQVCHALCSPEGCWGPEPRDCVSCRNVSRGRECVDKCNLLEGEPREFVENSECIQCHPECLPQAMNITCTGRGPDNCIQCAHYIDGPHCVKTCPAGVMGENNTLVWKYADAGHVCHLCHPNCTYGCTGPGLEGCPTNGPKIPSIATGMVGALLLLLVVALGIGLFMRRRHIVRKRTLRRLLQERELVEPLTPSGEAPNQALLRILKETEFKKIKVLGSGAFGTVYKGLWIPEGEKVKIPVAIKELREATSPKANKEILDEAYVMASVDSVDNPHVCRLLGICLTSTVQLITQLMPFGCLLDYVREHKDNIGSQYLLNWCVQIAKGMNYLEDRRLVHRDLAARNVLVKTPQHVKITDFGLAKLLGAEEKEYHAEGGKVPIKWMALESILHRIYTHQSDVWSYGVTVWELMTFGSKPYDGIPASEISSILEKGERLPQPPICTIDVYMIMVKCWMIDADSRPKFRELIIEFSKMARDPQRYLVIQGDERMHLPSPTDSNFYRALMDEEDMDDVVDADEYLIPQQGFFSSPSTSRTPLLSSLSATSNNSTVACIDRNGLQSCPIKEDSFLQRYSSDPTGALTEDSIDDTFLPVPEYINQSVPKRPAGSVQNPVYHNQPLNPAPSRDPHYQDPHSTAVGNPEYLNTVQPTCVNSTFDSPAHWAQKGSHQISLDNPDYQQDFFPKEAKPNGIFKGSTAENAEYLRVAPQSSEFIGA
From the text: as §1, §2, §3, §4, §5, §6, §7, §8, §9, §10, §11, §12, §13, §14, §15, §16

[3] = molecular target: T4, EGFR exon 20 FQEA Ins A763_V764 (Ba/F3 cells) (Homo sapiens, UniProt P00533, INS763FQEA); test: Inhibitor activity on EGFR-dependent cell growth (CellTiter-Glo, 72 h), Ba/F3 EGFR exon 20 FQEA Ins; settings: read-out: BaF3 FQEA IC50
T4 construct: expressed in transfected cells; host or cells: Ba/F3 (murine pro-B cells), retroviral transduction, puromycin selection, IL3-independent pool
T4 sequence (P00533 with tags, fused parts or gaps INS763FQEA): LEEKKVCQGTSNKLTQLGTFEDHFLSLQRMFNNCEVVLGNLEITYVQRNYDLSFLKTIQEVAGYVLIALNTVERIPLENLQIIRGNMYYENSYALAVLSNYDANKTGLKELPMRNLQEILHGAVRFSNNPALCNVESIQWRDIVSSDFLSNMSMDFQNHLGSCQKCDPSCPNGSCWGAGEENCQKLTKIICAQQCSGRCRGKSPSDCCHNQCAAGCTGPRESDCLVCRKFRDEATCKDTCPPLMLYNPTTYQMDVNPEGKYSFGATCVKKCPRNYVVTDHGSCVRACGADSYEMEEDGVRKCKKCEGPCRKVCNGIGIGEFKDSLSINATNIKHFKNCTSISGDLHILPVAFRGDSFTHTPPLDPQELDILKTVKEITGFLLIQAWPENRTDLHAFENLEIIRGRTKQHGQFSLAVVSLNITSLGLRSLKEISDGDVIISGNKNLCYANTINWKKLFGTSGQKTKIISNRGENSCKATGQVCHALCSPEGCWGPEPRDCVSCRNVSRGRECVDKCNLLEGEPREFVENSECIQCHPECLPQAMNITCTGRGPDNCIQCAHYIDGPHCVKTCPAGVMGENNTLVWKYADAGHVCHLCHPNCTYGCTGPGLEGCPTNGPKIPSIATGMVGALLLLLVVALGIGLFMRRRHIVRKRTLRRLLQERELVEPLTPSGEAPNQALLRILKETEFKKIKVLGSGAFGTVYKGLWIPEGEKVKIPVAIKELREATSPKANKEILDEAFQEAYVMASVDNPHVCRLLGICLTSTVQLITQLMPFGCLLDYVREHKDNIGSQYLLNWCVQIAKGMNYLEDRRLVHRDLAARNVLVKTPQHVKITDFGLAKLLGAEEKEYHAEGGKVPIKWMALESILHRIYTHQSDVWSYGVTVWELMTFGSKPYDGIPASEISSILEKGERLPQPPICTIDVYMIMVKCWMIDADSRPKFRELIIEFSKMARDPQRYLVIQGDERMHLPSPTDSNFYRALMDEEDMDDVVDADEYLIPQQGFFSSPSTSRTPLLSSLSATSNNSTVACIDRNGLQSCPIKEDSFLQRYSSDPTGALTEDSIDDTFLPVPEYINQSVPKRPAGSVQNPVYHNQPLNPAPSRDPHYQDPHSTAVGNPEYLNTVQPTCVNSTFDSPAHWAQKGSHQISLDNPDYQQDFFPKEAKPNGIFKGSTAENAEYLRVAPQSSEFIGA
From the text: as §1, §2, §3, §4, §5, §6, §7, §8, §9, §10, §11, §12, §13, §14, §15, §16

T1 sequence (P00533 with tags, fused parts or gaps INS769ASV): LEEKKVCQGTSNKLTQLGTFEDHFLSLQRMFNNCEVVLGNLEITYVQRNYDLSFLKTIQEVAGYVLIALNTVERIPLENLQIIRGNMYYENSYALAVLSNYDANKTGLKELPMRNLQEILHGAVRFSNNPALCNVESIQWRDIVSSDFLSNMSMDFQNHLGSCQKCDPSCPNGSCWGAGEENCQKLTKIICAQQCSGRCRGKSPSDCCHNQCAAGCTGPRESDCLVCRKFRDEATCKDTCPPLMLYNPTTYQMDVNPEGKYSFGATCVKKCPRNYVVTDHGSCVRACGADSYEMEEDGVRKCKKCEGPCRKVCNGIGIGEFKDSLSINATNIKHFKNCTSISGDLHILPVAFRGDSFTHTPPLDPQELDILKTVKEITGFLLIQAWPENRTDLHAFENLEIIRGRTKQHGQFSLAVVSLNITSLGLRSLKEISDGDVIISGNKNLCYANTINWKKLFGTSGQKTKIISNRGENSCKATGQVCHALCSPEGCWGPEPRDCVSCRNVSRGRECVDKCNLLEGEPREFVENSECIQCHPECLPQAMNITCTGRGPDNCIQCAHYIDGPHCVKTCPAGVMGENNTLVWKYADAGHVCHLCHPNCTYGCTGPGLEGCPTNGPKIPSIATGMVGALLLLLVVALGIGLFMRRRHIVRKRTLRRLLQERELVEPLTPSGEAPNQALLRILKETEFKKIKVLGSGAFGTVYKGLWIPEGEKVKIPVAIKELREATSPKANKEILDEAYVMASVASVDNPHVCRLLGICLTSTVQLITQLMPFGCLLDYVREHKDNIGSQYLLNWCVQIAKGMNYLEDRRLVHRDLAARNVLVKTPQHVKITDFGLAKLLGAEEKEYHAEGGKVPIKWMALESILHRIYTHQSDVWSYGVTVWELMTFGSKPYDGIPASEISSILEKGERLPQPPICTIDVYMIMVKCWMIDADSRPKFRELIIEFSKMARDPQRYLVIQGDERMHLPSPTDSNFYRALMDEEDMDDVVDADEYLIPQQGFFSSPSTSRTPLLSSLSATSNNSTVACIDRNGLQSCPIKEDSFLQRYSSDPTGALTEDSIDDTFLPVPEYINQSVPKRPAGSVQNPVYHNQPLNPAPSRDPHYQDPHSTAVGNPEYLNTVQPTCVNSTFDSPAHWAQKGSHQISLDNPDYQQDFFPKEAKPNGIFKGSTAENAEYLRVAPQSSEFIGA

SMILES | IC50 [1] [µM] | IC50 (EGFR WT (Ba/F3 cells)) [µM] | IC50 [2] [µM] | IC50 [3] [µM]
COc1ncc2nccc(-c3[nH]c4c(c3Nc3cc(F)cc(Cl)c3OC)C(=O)NCC4)c2n1 [Compound 792, 3-[(3-chloro-5-fluoro-2-methoxyphenyl)amino]-2-[2-methoxypyrido[3,2-d]pyrimidin-8-yl]-1H,5H,6H,7H-pyrrolo[3,2-c]pyridin-4-one] | < 0.1 | 0.1 to 1 | < 0.1 | < 0.1
COc1ncc2nccc(-c3[nH]c4c(c3Nc3cccc(Cl)c3)C(=O)NCC4)c2n1 [Compound 798, 3-[(3-chlorophenyl)amino]-2-[2-methoxypyrido[3,2-d]pyrimidin-8-yl]-1H,5H,6H,7H-pyrrolo[3,2-c]pyridin-4-one] | < 0.1 | 0.1 to 1 | < 0.1 | < 0.1
COc1ncc2nccc(-c3[nH]c4c(c3Nc3c(F)cccc3F)C(=O)NCC4)c2n1 [Compound 806, 3-[(2,6-difluorophenyl)amino]-2-[2-methoxypyrido[3,2-d]pyrimidin-8-yl]-1H,5H,6H,7H-pyrrolo[3,2-c]pyridin-4-one] | > 1 | > 1 | > 1 | 0.1 to 1
COc1cc2nccc(-c3[nH]c4c(c3Nc3cccc(F)c3OC)C(=O)NCC4)c2nc1OC [Compound 807, 2-(6,7-dimethoxy-1,5-naphthyridin-4-yl)-3-[(3-fluoro-2-methoxyphenyl)amino]-1H,5H,6H,7H-pyrrolo[3,2-c]pyridin-4-one] | < 0.1 | < 0.1 | < 0.1 | < 0.1
COc1c(F)cccc1Nc1c(-c2ccnc3cc(F)cnc23)[nH]c2c1C(=O)NCC2 [Compound 825, 2-(7-fluoro-1,5-naphthyridin-4-yl)-3-[(3-fluoro-2-methoxyphenyl)amino]-1H,5H,6H,7H-pyrrolo[3,2-c]pyridin-4-one] | 0.1 to 1 | > 1 | < 0.1 | 0.1 to 1
COc1c(Cl)cccc1Nc1c(-c2ccnc3cc(F)cnc23)[nH]c2c1C(=O)NCC2 [Compound 826] | < 0.1 | 0.1 to 1 | < 0.1 | < 0.1
COc1c(F)cccc1Nc1c(-c2nnc3ccccn23)[nH]c2c1C(=O)NCC2 [compound 239] | > 1 | > 1 | > 1 | > 1
COc1c(F)cccc1Nc1c(-c2ccncc2)[nH]c2c1C(=O)NCC2 [compound 243] | 0.1 to 1 | > 1 | 0.1 to 1 | 0.1 to 1
COc1c(F)cccc1Nc1c(-c2ccnc3[nH]ccc23)[nH]c2c1C(=O)NCC2 [compound 252] | 0.1 to 1 | > 1 | 0.1 to 1 | 0.1 to 1
COc1c(F)cccc1Nc1c(-c2ccnc(SC)n2)[nH]c2c1C(=O)NCC2 [compound 255] | 0.1 to 1 | 0.1 to 1 | 0.1 to 1 | 0.1 to 1
COc1c(F)cccc1Nc1c(-c2ccnc(-c3cnn(C)c3)c2)[nH]c2c1C(=O)NCC2 [compound 259] | > 1 | > 1 | > 1 | > 1
COc1ccc2nccc(-c3[nH]c4c(c3Nc3cccc(Cl)c3OC)C(=O)NCC43CC3)c2n1 [compound 316] | < 0.1 | 0.1 to 1 | < 0.1 | < 0.1
COc1c(Cl)cccc1Nc1c(-c2ccnc3ccc(OC4CC4)nc23)[nH]c2c1C(=O)NCC21CC1 [compound 323] | < 0.1 | 0.1 to 1 | < 0.1 | < 0.1
COc1ncc2nccc(-c3[nH]c4c(c3Nc3cccc(F)c3OC)C(=O)NCC43CC3)c2n1 [compound 379] | < 0.1 | 0.1 to 1 | < 0.1 | < 0.1
COc1c(F)cccc1Nc1c(-c2ccnc3cnc(OC4CC4)nc23)[nH]c2c1C(=O)NCC2 [compound 413] | < 0.1 | < 0.1 | < 0.1 | < 0.1

Now from value to compound:

IC50 [1] [µM] | IC50 (EGFR WT (Ba/F3 cells)) [µM] | IC50 [2] [µM] | IC50 [3] [µM] | SMILES
< 0.1 | 0.1 to 1 | < 0.1 | 0.1 to 1 | CCc1c(F)cccc1Nc1c(-c2ccnc3cnc(OC)nc23)[nH]c2c1C(=O)NCC2 [Compound 791, 3-[(2-ethyl-3-fluorophenyl)amino]-2-[2-methoxypyrido[3,2-d]pyrimidin-8-yl]-1H,5H,6H,7H-pyrrolo[3,2-c]pyridin-4-one]
< 0.1 | 0.1 to 1 | < 0.1 | < 0.1 | COc1ncc2nccc(-c3[nH]c4c(c3Nc3cccc(Cl)c3C)C(=O)NCC4)c2n1 [Compound 793, 3-[(3-chloro-2-methylphenyl)amino]-2-[2-methoxypyrido[3,2-d]pyrimidin-8-yl]-1H,5H,6H,7H-pyrrolo[3,2-c]pyridin-4-one]
0.1 to 1 | > 1 | 0.1 to 1 | 0.1 to 1 | COc1ncc2nccc(-c3[nH]c4c(c3Nc3cccc(F)c3CC(F)F)C(=O)NCC4)c2n1 [Compound 795, 3-{[2-(2,2-difluoroethyl)-3-fluorophenyl]amino}-2-{2-methoxypyrido[3,2-d]pyrimidin-8-yl}-1H,5H,6H,7H-pyrrolo[3,2-c]pyridin-4-one]
< 0.1 | 0.1 to 1 | < 0.1 | < 0.1 | COc1ncc2nccc(-c3[nH]c4c(c3Nc3cccc(Cl)c3F)C(=O)NCC4)c2n1 [Compound 799, 3-[(3-chloro-2-fluorophenyl)amino]-2-[2-methoxypyrido[3,2-d]pyrimidin-8-yl]-1H,5H,6H,7H-pyrrolo[3,2-c]pyridin-4-one]
< 0.1 | 0.1 to 1 | < 0.1 | 0.1 to 1 | CCc1c(Cl)cccc1Nc1c(-c2ccnc3cnc(OC)nc23)[nH]c2c1C(=O)NCC2 [Compound 800, 3-[(3-chloro-2-ethylphenyl)amino]-2-[2-methoxypyrido[3,2-d]pyrimidin-8-yl]-1H,5H,6H,7H-pyrrolo[3,2-c]pyridin-4-one]
0.1 to 1 | > 1 | > 1 | > 1 | COc1ncc2nccc(-c3[nH]c4c(c3Nc3cccc(Cl)c3C(F)(F)F)C(=O)NCC4)c2n1 [Compound 801, 3-{[3-chloro-2-(trifluoromethyl)phenyl]amino}-2-{2-methoxypyrido[3,2-d]pyrimidin-8-yl}-1H,5H,6H,7H-pyrrolo[3,2-c]pyridin-4-one]
> 1 | > 1 | > 1 | > 1 | COc1ncc2nccc(-c3[nH]c4c(c3Nc3cccc(Cl)c3OC(F)(F)F)C(=O)NCC4)c2n1 [Compound 802, 3-[[3-chloro-2-(trifluoromethoxy)phenyl]amino]-2-[2-methoxypyrido[3,2-d]pyrimidin-8-yl]-1H,5H,6H,7H-pyrrolo[3,2-c]pyridin-4-one]
< 0.1 | 0.1 to 1 | < 0.1 | < 0.1 | COc1ncc2nccc(-c3[nH]c4c(c3Nc3cccc(Cl)c3Cl)C(=O)NCC4)c2n1 [Compound 803, 3-[(2,3-dichlorophenyl)amino]-2-[2-methoxypyrido[3,2-d]pyrimidin-8-yl]-1H,5H,6H,7H-pyrrolo[3,2-c]pyridin-4-one]
0.1 to 1 | 0.1 to 1 | < 0.1 | < 0.1 | COc1ncc2nccc(-c3[nH]c4c(c3Nc3cccc(C)c3F)C(=O)NCC4)c2n1 [Compound 804, 3-[(2-fluoro-3-methylphenyl)amino]-2-[2-methoxypyrido[3,2-d]pyrimidin-8-yl]-1H,5H,6H,7H-pyrrolo[3,2-c]pyridin-4-one]
0.1 to 1 | 0.1 to 1 | < 0.1 | < 0.1 | COc1ncc2nccc(-c3[nH]c4c(c3Nc3cccc(F)c3F)C(=O)NCC4)c2n1 [Compound 805, 3-[(2,3-difluorophenyl)amino]-2-[2-methoxypyrido[3,2-d]pyrimidin-8-yl]-1H,5H,6H,7H-pyrrolo[3,2-c]pyridin-4-one]

— US20240101576A1, “HETEROCYCLIC INHIBITORS OF EGFR AND/OR HER2, FOR USE IN THE TREATMENT OF CANCER” (Scorpion Therapeutics, Inc., priority 2020, published 2024)
